Assay results reported in article PMC8110993, “Structure and antimicrobial activity of NCR169, a nodule-specific cysteine-rich peptide of Medicago truncatula” (Scientific Reports, 2021).
Where a SMILES comes first, the peptide text is derived from it. Bridges are numbered along the chain shown (N, C = ends).

What was measured:
[1] = Liposome sedimentation (binding) assay; settings: peptide 20 μM, 2 mM DMPG liposomes, 20 mM HEPES, 150 mM NaCl, pH 7.0, 30 min room temperature, 200,000×g, supernatant and pellet by Tricine-SDS-PAGE
Procedure: (§1) Figure 3 NCR169 binds to the bacterial phospholipid. (A) Circular dichroism (CD) spectra of NCR169 peptides (NCR169-ox1 and -ox2). NCR169 peptides (20 μM) were dissolved in the following solvents: water (No additives), 2 mM DMPC liposomes, 2 mM DMPG liposomes or 30% 2,2,2-trifluoroethanol (TFE). (B) The results of liposome binding assays. The NCR169 peptide (20 μM) was incubated with buffer (No lipid), 2 mM DMPC liposomes, or 2 mM DMPG liposomes. After incubation at room temperature for 30 min, the mixture was ultra-centrifuged at 200,000×g. The supernatant and pellet fractions were analyzed by Tricine-SDS-PAGE. The no lipid sample before ultra-centrifugation was used as the input.
(§2) The phospholipids DMPC and DMPG were purchased from Avanti Polar Lipids (Alabaster, AL, USA). An appropriate amount of phospholipid was dissolved in chloroform and dried under vacuum for 1 h. The lipid film was suspended in water, vortexed, and sonicated for 30 min to form the liposomes.
(§3) The assay was carried out as described previously. Briefly, equal volumes of NCR169 peptide (20 μM) and liposomes (2 mM) were mixed in assay buffer (20 mM HEPES, 150 mM NaCl, pH 7.0) and incubated for 30 min at room temperature, followed by ultracentrifugation at 200,000×g for 15 min at 20 °C. After centrifugation, the supernatant was collected, and the pellet was dissolved in the same volume of assay buffer containing 0.2% Triton X-100. The supernatant and pellet fractions were subjected to Tricine-SDS-PAGE, and peptides were detected by Coomassie Brilliant Blue staining.
Supplementary Figure S11. NCR 169 M binds to the bacterial phospholipid. (A) Circular dichroism (CD) spectra of NCR169M (20 μM) in water (No additive), 2 mM dimyristoylphosphatidylcholine (DMPC) liposomes, 2 mM dimyristoylphosphatidylglycerol (DMPG) liposomes or 30% 2,2,2-trifluoroethanol (TFE). (B) The result of liposome binding assay. NCR169M (20 μM) was incubated with buffer (No lipid),2 mM DMPC liposomes, or 2 mM DMPG liposomes . After incubation at room temperature for 30 min, the mixture was ultra-centrifuged at 200,000 × g. The supernatant and pellet fractions were analyzed by Tricine-SDS-PAGE. The no lipidsample before ultra-centrifugation was used as the input.
(also on this page, place not known: [θ] (103 deg cm2 dmol-1) markerkDa input No lipid sup ppt sup ppt sup ppt NCR169M lipid), DMPC 2 DMPG liposomes. lipid sample)
(1 picture or pasted object on this page, not shown here)
Supplementary Figure S12. The results of liposome binding assays. (A) NCR169-derived peptide (10 μM) was incubated with buffer (No lipid), 1 mM DMPC liposomes, 1 mM DMPG liposomes. After incubation at room temperature for 30 min, the mixture was ultra-centrifuged at 200,000 × g. The supernatant and pellet fractions were analyzed by Tricine-SDS-PAGE. The no lipid sample before ultra-centrifugation was used as the input. Arrows indicate weak bands. (B) […]

[2] = Liposome sedimentation (binding) assay; settings: peptide 20 μM, 2 mM DMPC liposomes, 20 mM HEPES, 150 mM NaCl, pH 7.0, 30 min room temperature, 200,000×g, supernatant and pellet by Tricine-SDS-PAGE
Procedure: as §1, §2
as §3, with “After centrifugation, the supernatant was collected, and the pellet was dissolved in the same volume of assay buffer containing 0.2% Triton X-100.” left out

Escherichia coli K-12 = assay type: cell-based; settings: for IC100: E. coli K-12, drop plate method, 2 h treatment at room temperature, 5 mM HEPES-KOH pH 7.0; for IC50: K-12, 2 h, pH 7
Procedure: (§4) Antimicrobial tests were performed using the drop plate method[12],[47]. Bacterial strains in the logarithmic phase (OD600 = 0.5–0.8) were diluted with 5 mM HEPES–KOH (pH 7.0) to a bacterial culture value of 1 × 10^6 CFU/mL. At OD600 = 0.1, the concentrations of S. meliloti and E. coli K-12 cells were 6.4 × 10^6 CFU/mL and 5.2 × 10^7 CFU/mL, respectively. Equal volumes of bacteria (S. meliloti or E. coli K-12) and NCR169 peptide or PMB were mixed and incubated at room temperature for 2 h. For antimicrobial tests against S. meliloti, 10 μL of each serially diluted mixture was spotted on MHB plates with 2.5 mM MgCl2, and 2.5 mM CaCl2, followed by incubation at 30 °C for 40 h. For antimicrobial tests against E. coli K-12, 10 μL of each mixture was spotted on Mueller Hinton Broth (MHB; MilliporeSigma, Burlington, MA, USA) plates followed by incubation at 30 °C for 13 h.
(§5) To estimate survival rate, the peptide-treated bacterial mixtures were serially diluted with the buffer before spotting on the plate. Bacterial survival rates were calculated using the colony numbers of each bacterial strain with or without peptide treatment. All experiments were repeated at least four times.
(§6) Supplementary Table S2. Antimicrobial activities of NCR169 peptides against E. coliK-12 and S. meliloti.
(§7) Peptide IC50 (μM)* IC100 (μM)
(§8) E. coli K-12 S. meliloti E. coli K-12 S. meliloti
(§9) IC50: 50% inhibitory concentration (Calculated using “Dose-response curve” fitting)

Sinorhizobium meliloti = assay type: cell-based; settings: for IC50: 2 h, pH 7; for IC100: S. meliloti, drop plate method, 2 h treatment at room temperature, 5 mM HEPES-KOH pH 7.0
Procedure: as §4, §5, §6, §7, §8, §9

[3] = assay type: physicochemical; settings: pH 2.2
Procedure: We further measured the circular dichroism (CD) spectra of NCR169-ox1 and -ox2 under various pH conditions to confirm their structural stability against pH (Supplementary Fig. S4). […] Because acidic pH is preferable for amide proton detection in NMR experiments, we performed the following solution NMR study at lower pH.
CD spectra were recorded within a wavelength range of 270–195 nm using a JASCO J-820 spectropolarimeter (JASCO International Co., Ltd., Tokyo, Japan). A quartz cell with a light path length of 1 mm was used for the measurements. The sample temperature was maintained at 25 °C during the measurements.
Supplementary Figure S4. Circular dichroism (CD) spectra of NCR169-ox1 and -ox2 under
various pH conditions. The signal reflectingβ-sheet structure (218 nm) was hardly changed.

[4] = assay type: physicochemical
Procedure: To confirm it, we examined the solubility of NCR169 in various solvents, HEPES (salt-free), HEPES with salt (50 to 200 mM NaCl or KCl), and PBS. […] In other words, the disulfide bonds of NCR169 contribute to its solubility.
Supplementary Figure S3. Solubility assessment of NCR169. The same amount of NCR169 was dissolved in various solvents. After incubation at room temperature for 1 h, the solution was centrifuged at 20,000 × g and the supernatant was analyzed by Tricine-SDS-PAGE. […]

| SMILES | Binding to DMPG liposomes [1] | Binding to DMPC liposomes [2] | IC100 (Escherichia coli K-12) | IC50 (Escherichia coli K-12) | IC50 (Sinorhizobium meliloti) | IC100 (Sinorhizobium meliloti) | Structural stability against pH (CD spectra) [3] | Solubility in various solvents [4] |
| --- | --- | --- | --- | --- | --- | --- | --- | --- |
| CC[C@H](C)[C@@H]1NC(=O)CNC(=O)[C@@H](NC(=O)[C@H](Cc2ccc(O)cc2)NC(=O)[C@H](CCCCN)NC(=O)[C@@H](NC(=O)[C@H](Cc2c[nH]cn2)NC(=O)CNC(=O)[C@@H](NC(=O)[C@H](CC(=O)O)NC(=O)[C@H](CCC(=O)O)NC(=O)CN)[C@@H](C)CC)[C@@H](C)CC)CSSC[C@@H](C(=O)N[C@@H](Cc2ccc(O)cc2)C(=O)N[C@@H](CCCCN)C(=O)N[C@@H](CO)C(=O)N[C@@H](CCCCN)C(=O)N[C@@H](CCCCN)C(=O)N2CCC[C@H]2C(=O)N[C@@H](CC(C)C)C(=O)N[C@@H](Cc2ccccc2)C(=O)N[C@@H](CCCCN)C(=O)N[C@H](C(=O)N[C@@H](Cc2c[nH]c3ccccc23)C(=O)N[C@@H](CCCCN)C(=O)N[C@H]2CSSC[C@@H](C(=O)N[C@H](C(=O)N[C@@H](CC(C)C)C(=O)N[C@@H](Cc3c[nH]c4ccccc34)C(=O)N[C@@H](Cc3ccc(O)cc3)C(=O)N[C@@H](CCCCN)C(=O)O)C(C)C)NC(=O)[C@H](C(C)C)NC(=O)[C@H](CC(N)=O)NC(=O)[C@H](CCC(=O)O)NC(=O)[C@H](C(C)C)NC2=O)[C@@H](C)CC)NC(=O)[C@H](CC(=O)O)NC(=O)[C@H](CC(=O)O)NC(=O)[C@H](C(C)C)NC1=O [NCR169-ox1] (H-GEDIGHIKYCGIVDDCYKSKKPLFKIWKCVENVCVLWYK-OH; disulfide 10-16, 29-34) | bound to the DMPG liposomes | Neither NCR169-ox1 nor -ox2 bound | 16 µM | 0.41 µM | 6.4 µM | 128 µM | retained their conformations under acidic and neutral conditions | soluble in all conditions |
| CC[C@H](C)[C@@H]1NC(=O)CNC(=O)[C@@H](NC(=O)[C@H](Cc2ccc(O)cc2)NC(=O)[C@H](CCCCN)NC(=O)[C@@H](NC(=O)[C@H](Cc2c[nH]cn2)NC(=O)CNC(=O)[C@@H](NC(=O)[C@H](CC(=O)O)NC(=O)[C@H](CCC(=O)O)NC(=O)CN)[C@@H](C)CC)[C@@H](C)CC)CSSC[C@@H]2NC(=O)[C@H](CCCCN)NC(=O)[C@H](Cc3c[nH]c4ccccc34)NC(=O)[C@H]([C@@H](C)CC)NC(=O)[C@H](CCCCN)NC(=O)[C@H](Cc3ccccc3)NC(=O)[C@H](CC(C)C)NC(=O)[C@@H]3CCCN3C(=O)[C@H](CCCCN)NC(=O)[C@H](CCCCN)NC(=O)[C@H](CO)NC(=O)[C@H](CCCCN)NC(=O)[C@H](Cc3ccc(O)cc3)NC(=O)[C@H](CSSC[C@@H](C(=O)N[C@H](C(=O)N[C@@H](CC(C)C)C(=O)N[C@@H](Cc3c[nH]c4ccccc34)C(=O)N[C@@H](Cc3ccc(O)cc3)C(=O)N[C@@H](CCCCN)C(=O)O)C(C)C)NC(=O)[C@H](C(C)C)NC(=O)[C@H](CC(N)=O)NC(=O)[C@H](CCC(=O)O)NC(=O)[C@H](C(C)C)NC2=O)NC(=O)[C@H](CC(=O)O)NC(=O)[C@H](CC(=O)O)NC(=O)[C@H](C(C)C)NC1=O [NCR169-ox2] (H-GEDIGHIKYCGIVDDCYKSKKPLFKIWKCVENVCVLWYK-OH; disulfide 10-29, 16-34) | hardly binds | Neither NCR169-ox1 nor -ox2 bound | 16 µM | 3.4 µM | 9.8 µM | 128 µM | retained their conformations under acidic and neutral conditions | soluble in all conditions |
